# Laboratory results from article PMC12013143, “Ionic liquid-iontophoresis mediates transdermal delivery of sparingly soluble drugs” (Drug Delivery, 2025).
# Values joined by “and” are separate entries in the source; they are usually repeats but may differ in a detail not shown here. Equal entries are not always repeated.
# Legend:
# [1] = In vitro skin permeation/retention with IL alone, horizontal diffusion cells; type: in vitro ADME; conditions: excised rat skin; for Effect on promoting permeation/retention of indomethacin: 20% IL or 1%SDS (label = vehicle); for Permeation/retention enhancement effect on apremilast: 20% IL (label = IL)
# Experimental: (§1) Anesthetize rats by intraperitoneal injection with a dose of 1.0 g/kg urethane solution. Then remove the back hair using a pet shaver. Carefully remove the muscle tissue from the inner side of the skin with a surgical knife, cut it into small pieces, soak it in physiological saline for 30 min, cover the diffusion cell opening, and secure it with a clip. Intact rat skin was positioned between two cells, with the SC facing the donor compartment. The drugs were precisely measured at a weight of 4.00 mg each and subsequently dissolved in 4 mL of ILs or other control solutions, and added in donor compartment. The 0.01 M PBS (pH 6.8, 4.0 mL) was chosen as receptor medium. Sampling of ILs was conducted at various time points, specifically at 0, 4, 6, 8, 10, and 24 h. Following each sampling, 2.0 mL (all receptor medium was removed at the 10-h time point) of receptor medium was replaced with fresh PBS solution. The transdermal penetration of IS or IL-IS was conducted using an electroosmosis apparatus (Dajia DL-Z, China) to ensure a consistent current intensity of 0–0.5 mA. […] A receiving solution (2.0 mL) was collected at 1, 2, 4, 6, 8, and 10 h. After skin permeation experiments, rat skins were subsequently removed from cells, cut into pieces, and immersed in methanol for 12 h. The samples were then diluted with mobile phase at a ratio of 1:10. Following centrifugation for 10 min at 9000 rpm, the resulting supernatants were analyzed using HPLC, as previously described.
# (§2) The drug skin permeation amount of solution system was calculated through concentration and volume of each sampling point: Q=[Cn×Vo+∑i=1n−1Ci×V]/S
# (§3) In this experiment, Vo: 4.0 mL; V: 2.0 mL (24 h point: 4 mL); S: 0.74 cm^2.
# (§4) The drug skin retention amount was calculated as follows: R=M/S
# [2] = In vitro skin permeation/retention with iontophoresis (IS) or IL-IS, horizontal diffusion cells; type: in vitro ADME, rat; conditions: for Effect of current intensity on retention amount / Effect of current intensity on transdermal permeation / Retention in negative current relative to positive current / Permeation in negative current relative to positive current / Increase of transdermal permeation by IL-IS / Increase of transdermal permeation by IL / Permeation applying IL-IS relative to IL alone / Permeation applying IL-IS relative to IS alone: 20% [Cho] [Cin]; for Effect of current intensity on retention amount / Effect of current intensity on transdermal permeation: negative current 0.1–0.3 mA; for Retention in negative current relative to positive current / Permeation in negative current relative to positive current: 0.3 mA; for Permeation in negative current relative to positive current / Increase of transdermal permeation by IL-IS / Increase of transdermal permeation by IL / Increase of transdermal permeation by IS: 10 h cumulative penetration; for Increase of transdermal permeation by IL: no current; for Increase of transdermal permeation by IS: no IL
# Experimental: as §1, §2, §3, §4
# [3] = General properties of ILs diluted to 20% (w/w) with water: pH, electrical conductivity, viscosity; type: physicochemical; conditions: 20%IL in water
# Experimental: Viscosity was determined using a viscometer (DV2T, Brookfield, America).
# HaCaT cells = assay: Cytotoxicity of ILs, CCK-8 assay; type: cell-based, human; conditions: 24 h incubation
# Experimental: The cytotoxicity of ILs to HaCaT cells was assessed using the Cell Counting Kit 8 (CCK-8) assay. The cell suspension (100 µL) was transferred to a 96-well plate at 8 × 10^3 cells/mL. Then, the 96-well plate was placed in a cell incubator. After 24 h, the medium was removed, and the cells were washed with phosphate-buffered saline (PBS, pH 7.4, 0.1 M). Then, ILs at different concentrations was added to each well for stimulation. After incubation for 24 h, CCK-8 solution (10 µL) was added to each well, followed by incubation for 2 h. The absorbance was measured at 450 nm using a microplate reader (SpectraMax iD5, Molecular Devices, America), and the cell viability was calculated.
# physchem = conditions: Solubilities
# rat skin = assay: CLSM of rhodamine B penetration into rat skin in vivo, with or without endocytosis inhibitors; conditions: for Fluorescence intensity after treatment with endocytosis inhibitors: nystatin, indomethacin, chlorpromazine applied 1 h before
# [4] = 20% IL (label = IL), negative current 0.3 mA, 10 h
# [5] = aripiprazole in 20% IL (label = IL)
# [6] = pH 4.5, aqueous buffer, thermodynamic from solid
# [7] = pH 6.8, aqueous buffer, thermodynamic from solid
# [8] = pH 9, aqueous buffer, thermodynamic from solid
# [9] = water, thermodynamic from solid
Cumulative permeation after 24 h ([1]; drug in water),Skin retention amount after 24 h ([1]; drug in water),Effect of current intensity on transdermal permeation ([2]; 10 h),Increase of transdermal permeation by IL-IS ([2]; negative current 0.3 mA),Increase of transdermal permeation by IL [2],Increase of transdermal permeation by IS ([2]; negative current 0.3 mA),solubility (physchem; [6]),solubility (physchem; [7]),solubility (physchem; [8]),solubility (physchem; [9]),"Permeation applying IL-IS relative to IL alone ([2]; negative current 0.3 mA, 10 h)",Compound,Electric conductivity [3],Viscosity [3],Effect of current intensity on retention amount ([2]; 10 h),further results
–,–,–,–,–,–,–,–,–,–,–,"CCCCCCCCCCCCOS(=O)(=O)[O-].[Na+] [1%SDS, sodium dodecyl sulfate]",–,–,–,Effect on promoting permeation/retention of indomethacin ([1]; 24 h): no significant effect
–,–,–,–,–,–,–,–,–,–,–,CC(=O)[O-].C[N+](C)(C)CCO [[Cho] [Ace]],32.12 ± 0.03 ms/cm,1.69 ± 0.08 mPa·s,–,"Permeation/retention enhancement effect on apremilast ([1]; 24 h): did not have significant permeation/retention enhancement effects; 24 h cumulative permeability of indomethacin relative to water ([1]; indomethacin in 20% IL (label = IL)): 4.8 times; Permeation enhancement effect on aripiprazole when IL-IS applied [2, 4]: did not have significant permeation enhancement effects; pH [3]: 9.37 and 9.37 ± 0.01; Cytotoxicity of ILs, descending order (from LD 50) (HaCaT cells): [Cho] [Ole] > [Cho] [Cin] > [Cho] [Ger] > [Cho] [Ace] > [Cho] [Tar]"
–,–,–,–,–,–,–,–,–,–,–,C[N+](C)(C)CCO.O=C([O-])/C=C/c1ccccc1 [[Cho] [Cin]],18.60 ± 0.06 ms/cm,1.97 ± 0.04 mPa·s,–,"Permeation of aripiprazole after 24 h, in words [1, 5]: did not show a significant difference; Skin retention of aripiprazole after 24 h, in words [1, 5]: surpassed that of other ILs; Increase of 10 h cumulative permeation of aripiprazole with IL-IS compared to IL or IS alone ([2]; 20% IL (label = IL), negative current 0.3 mA): 14 fold; pH [3]: 8.27 and 8.27 ± 0.01"
–,–,–,–,–,–,–,–,–,–,–,C[N+](C)(C)CCO.O=C([O-])C(O)C(O)C(=O)O (stereo not drawn) [[Cho] [Tar]],28.74 ± 0.01 ms/cm,1.48 ± 0.01 mPa·s,–,"Permeation/retention enhancement effect on apremilast ([1]; 24 h): did not have significant permeation/retention enhancement effects; Effect on promoting permeation/retention of indomethacin ([1]; 24 h): no significant effect; Permeation enhancement effect on aripiprazole when IL-IS applied [2, 4]: did not have significant permeation enhancement effects"
8.1 µg/cm^2,6.1 µg/cm^2,not significantly enhanced,16 fold,31 fold,little effect,18.3 ± 7.2 µg/mL,13.5 ± 0.5 µg/mL,6.8 ± 1 µg/mL,21.8 ± 3.8 µg/mL,–,CCOc1cc([C@@H](CS(C)(=O)=O)N2C(=O)c3cccc(NC(C)=O)c3C2=O)ccc1OC [apremilast],–,–,did not result in a significant difference,"Transdermal permeation versus [Cho] [Cin] concentration ([1]; IL alone, 24 h): linear correlation; Skin retention amount versus [Cho] [Cin] concentration ([1]; [Cho] [Cin] 0–20%, IL alone): no significant change; Retention in negative current relative to positive current ([2]; 10 h): ~3.4 fold; Permeation in negative current relative to positive current [2]: about 3.2 fold; solubility (physchem): 21.8 ± 3.8 µg/mL"
negligible,1.1 µg/cm^2,positive linear correlation,14 fold,little effect,little effect,152 ± 16.3 µg/mL,8.5 ± 3.2 µg/mL,0.79 ± 0.5 µg/mL,0.94 ± 0.15 µg/mL,about 14 fold,O=C1CCc2ccc(OCCCCN3CCN(c4cccc(Cl)c4Cl)CC3)cc2N1 [aripiprazole],–,–,did not result in a significant difference,"Cumulative permeation after 24 h ([1]; drug in 1% SDS): 0.35 µg/cm^2; Skin retention amount after 24 h ([1]; drug in 1% SDS): 2.6 µg/cm^2; Retention in negative current relative to positive current ([2]; 10 h): ~3.0 fold; Permeation in negative current relative to positive current [2]: ~5.0 fold; Transdermal penetration versus [Cho] [Cin] concentration under IL-IS ([2]; [Cho] [Cin] 0–20%, negative current 0.3 mA, 10 h): increase with the rise in the concentration; Permeation at different pH values ([2]; pH 4.5, pH 6.8 and pH 9.0, 10 h, IS-related factors): no significant change"
–,–,–,–,–,–,–,–,–,–,~16.5 fold,CN(Cc1ccc(C(C)(C)C)cc1)Cc1cccc2ccccc12 [butenafine],–,–,–,"Permeation applying IL-IS relative to IS alone ([2]; negative current 0.3 mA, 10 h): ~11.0 fold"
10.06 µg/cm^2,6.1 µg/cm^2,not significantly enhanced,little effect,3.3 fold,1.6 fold,2630 ± 648 µg/mL,21.5 ± 5.7 µg/mL,2230 ± 136 µg/mL,28.5 ± 0.7 µg/mL,–,COc1ccc2c(c1)c(CC(=O)O)c(C)n2C(=O)c1ccc(Cl)cc1 [indomethacin],–,–,did not result in a significant difference,–
–,–,–,–,–,–,–,–,–,–,–,CCN(CC)c1ccc2c(-c3ccccc3C(=O)O)c3ccc(=[N+](CC)CC)cc-3oc2c1 [rhodamine B],–,–,–,"Fluorescence intensity after treatment with endocytosis inhibitors (rat skin; IL, IS and IL-IS groups): partially suppressed; Fluorescence intensity after treatment with endocytosis inhibitors (rat skin; control gel group): no substantial alteration; Transmission pathway in skin (overlap with DAPI) (rat skin; rat skin in vivo, 10 h): primarily occurred through accessory organs; CLSM fluorescence intensity and depth in skin, order of treatments (rat skin; rat skin in vivo, 10 h, control gel, IL gel, IS, IL-IS): IL-IS > IS > IL > Control"
–,–,–,–,–,–,–,–,–,–,~2.6 fold,COc1cc2nc(N3CCN(C(=O)C4CCCO4)CC3)nc(N)c2cc1OC (stereo not drawn) [terazosin],–,–,–,"Permeation applying IL-IS relative to IS alone ([2]; negative current 0.3 mA, 10 h): ~5.2 fold"
